Assay results reported in PubChem BioAssay AID2060908 (Molecular Pharmacology Branch, DTP, NCI, 2025).

Test system: 186277-243-T-J2-PDC complex spheroids, viability
Assay: Anticancer human tumor 186277-243-T-J2-PDC patient-derived colon adenocarcinoma cell line growth inhibition [RAS]
Conditions: for IC50: curve of first compound; for viability, T/C: stronger effect = lower value
Outline: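 Agents were tested in combination matrices in half-log decrements from a top concentration at or near clinical Cmax (10 microM if undetermined). Targets were multi-cell spheroids of tumour lines plus HUVEC and MSC stromal cells.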

[1] = second compound 0.000949 µM, first compound 0.0316 µM
[2] = second compound 0.000949 µM, first compound 0.1 µM
[3] = second compound 0.000949 µM, first compound 0.316 µM
[4] = second compound 0.000949 µM, first compound 1 µM
[5] = second compound 0.000949 µM, first compound 3.16 µM
[6] = second compound 0.000949 µM, first compound 10 µM
[7] = second compound 0.003 µM, first compound 0.0316 µM
[8] = second compound 0.003 µM, first compound 0.1 µM
[9] = second compound 0.003 µM, first compound 0.316 µM
[10] = second compound 0.003 µM, first compound 1 µM
[11] = second compound 0.003 µM, first compound 3.16 µM
[12] = second compound 0.003 µM, first compound 10 µM
[13] = second compound 0.00949 µM, first compound 0.0316 µM
[14] = second compound 0.00949 µM, first compound 0.1 µM
[15] = second compound 0.00949 µM, first compound 0.316 µM
[16] = second compound 0.00949 µM, first compound 1 µM
[17] = second compound 0.00949 µM, first compound 3.16 µM
[18] = second compound 0.00949 µM, first compound 10 µM
[19] = second compound 0.03 µM, first compound 0.0316 µM
[20] = second compound 0.03 µM, first compound 0.1 µM
[21] = second compound 0.03 µM, first compound 0.316 µM
[22] = second compound 0.03 µM, first compound 1 µM
[23] = second compound 0.03 µM, first compound 3.16 µM
[24] = second compound 0.03 µM, first compound 10 µM
[25] = second compound 0.0949 µM, first compound 0.0316 µM
[26] = second compound 0.0949 µM, first compound 0.1 µM
[27] = second compound 0.0949 µM, first compound 0.316 µM
[28] = second compound 0.0949 µM, first compound 1 µM
[29] = second compound 0.0949 µM, first compound 3.16 µM
[30] = second compound 0.0949 µM, first compound 10 µM
[31] = second compound 0.3 µM, first compound 0.0316 µM
[32] = second compound 0.3 µM, first compound 0.1 µM
[33] = second compound 0.3 µM, first compound 0.316 µM
[34] = second compound 0.3 µM, first compound 1 µM
[35] = second compound 0.3 µM, first compound 3.16 µM
[36] = second compound 0.3 µM, first compound 10 µM
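Note: spheroids exposed to compounds for 7 days before viability read.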

Q: For Cc1nc(N2CCC3(CC2)COC(C)C3N)c(CO)nc1Sc1ccnc(N)c1Cl (stereo unspecified) + CCn1c(-c2cc(N3CCN(C)CC3)cnc2C(C)OC)c2c3cc(ccc31)-c1csc(n1)CC(NC(=O)C1CC1C)C(=O)N1CCCC(N1)C(=O)OCC(C)(C)C2, which IC50 (second compound 0.000949 µM) is on record?
A: 616 nM

Q: And the IC50 (second compound 0.003 µM)?
A: 128 nM

Q: What about the IC50 (second compound 0.00949 µM) of the same compound?
A: < 31.6 nM

Q: What about the IC50 (second compound 0.03 µM) of the same compound?
A: < 31.6 nM

Q: What about the IC50 (second compound 0.0949 µM) of the same compound?
A: < 31.6 nM

Q: What about the IC50 (second compound 0.3 µM) of the same compound?
A: < 31.6 nM

Q: What about the viability, T/C [1] of the same compound?
A: 94.6%

Q: And the viability, T/C [2]?
A: 110%

Q: What about the viability, T/C [3] of the same compound?
A: 76.3%

Q: What about the viability, T/C [4] of the same compound?
A: 30.1%

Q: And the viability, T/C [5]?
A: 9.66%

Q: What about the viability, T/C [6] of the same compound?
A: 5.87%

Q: And the viability, T/C [7]?
A: 91.2%

Q: And the viability, T/C [8]?
A: 58.7%

Q: And the viability, T/C [9]?
A: 18.3%

Q: And the viability, T/C [10]?
A: 8.06%

Q: What about the viability, T/C [11] of the same compound?
A: 4.43%

Q: What about the viability, T/C [12] of the same compound?
A: 2.87%

Q: What about the viability, T/C [13] of the same compound?
A: 27.1%

Q: And the viability, T/C [14]?
A: 13.6%

Q: And the viability, T/C [15]?
A: 6.12%

Q: What about the viability, T/C [16] of the same compound?
A: 4.02%

Q: And the viability, T/C [17]?
A: 3.42%

Q: What about the viability, T/C [18] of the same compound?
A: 2.67%

Q: What about the viability, T/C [19] of the same compound?
A: 9.41%

Q: And the viability, T/C [20]?
A: 7.94%

Q: What about the viability, T/C [21] of the same compound?
A: 4.32%

Q: And the viability, T/C [22]?
A: 3.62%

Q: What about the viability, T/C [23] of the same compound?
A: 2.89%

Q: What about the viability, T/C [24] of the same compound?
A: 2.28%

Q: What about the viability, T/C [25] of the same compound?
A: 5.71%

Q: And the viability, T/C [26]?
A: 4.9%

Q: And the viability, T/C [27]?
A: 3.65%

Q: What about the viability, T/C [28] of the same compound?
A: 3.26%

Q: And the viability, T/C [29]?
A: 2.76%

Q: What about the viability, T/C [30] of the same compound?
A: 1.95%

Q: And the viability, T/C [31]?
A: 4.72%

Q: What about the viability, T/C [32] of the same compound?
A: 4.35%

Q: What about the viability, T/C [33] of the same compound?
A: 3.45%

Q: And the viability, T/C [34]?
A: 3.1%

Q: What about the viability, T/C [35] of the same compound?
A: 2.4%

Q: What about the viability, T/C [36] of the same compound?
A: 1.92%

Q: For NC1c2ccccc2OC12CCN(c1cnc3c(N4CCCc5ncccc54)n[nH]c3n1)CC2 (stereo unspecified) + CCn1c(-c2cc(N3CCN(C)CC3)cnc2C(C)OC)c2c3cc(ccc31)-c1csc(n1)CC(NC(=O)C1CC1C)C(=O)N1CCCC(N1)C(=O)OCC(C)(C)C2, which IC50 (second compound 0.000949 µM) is on record?
A: 54.2 nM

Q: What about the IC50 (second compound 0.003 µM) of the same compound?
A: < 31.6 nM

Q: And the IC50 (second compound 0.00949 µM)?
A: < 31.6 nM

Q: What about the IC50 (second compound 0.03 µM) of the same compound?
A: < 31.6 nM

Q: And the IC50 (second compound 0.0949 µM)?
A: < 31.6 nM

Q: And the IC50 (second compound 0.3 µM)?
A: < 31.6 nM

Q: What about the viability, T/C [1] of the same compound?
A: 70.1%

Q: What about the viability, T/C [2] of the same compound?
A: 26.9%

Q: And the viability, T/C [3]?
A: 6.05%

Q: And the viability, T/C [4]?
A: 3.49%

Q: And the viability, T/C [5]?
A: 2.69%

Q: And the viability, T/C [6]?
A: 2.5%

Q: And the viability, T/C [7]?
A: 25.1%

Q: And the viability, T/C [8]?
A: 6.27%

Q: What about the viability, T/C [9] of the same compound?
A: 3.3%

Q: And the viability, T/C [10]?
A: 2.57%

Q: And the viability, T/C [11]?
A: 2.3%

Q: What about the viability, T/C [12] of the same compound?
A: 1.8%

Q: And the viability, T/C [13]?
A: 7.02%

Q: What about the viability, T/C [14] of the same compound?
A: 3.42%

Q: What about the viability, T/C [15] of the same compound?
A: 2.63%

Q: What about the viability, T/C [16] of the same compound?
A: 1.94%

Q: And the viability, T/C [17]?
A: 1.79%

Q: What about the viability, T/C [18] of the same compound?
A: 1.61%

Q: And the viability, T/C [19]?
A: 3.98%

Q: And the viability, T/C [20]?
A: 3.86%

Q: And the viability, T/C [21]?
A: 2.26%

Q: And the viability, T/C [22]?
A: 1.79%

Q: And the viability, T/C [23]?
A: 3.5%

Q: What about the viability, T/C [24] of the same compound?
A: 1.52%

Q: And the viability, T/C [25]?
A: 3.58%

Q: What about the viability, T/C [26] of the same compound?
A: 2.71%

Q: And the viability, T/C [27]?
A: 2.03%

Q: And the viability, T/C [28]?
A: 1.94%

Q: What about the viability, T/C [29] of the same compound?
A: 1.81%

Q: And the viability, T/C [30]?
A: 1.53%

Q: What about the viability, T/C [31] of the same compound?
A: 3.17%

Q: What about the viability, T/C [32] of the same compound?
A: 2.52%

Q: And the viability, T/C [33]?
A: 1.83%

Q: What about the viability, T/C [34] of the same compound?
A: 1.56%

Q: What about the viability, T/C [35] of the same compound?
A: 1.77%

Q: What about the viability, T/C [36] of the same compound?
A: 1.56%

Q: Which results are given for Nc1ccn(C2OC(CO)C(O)C2(F)F)c(=O)n1 (stereo unspecified) + CCn1c(-c2cc(N3CCN(C)CC3)cnc2C(C)OC)c2c3cc(ccc31)-c1csc(n1)CC(NC(=O)C1CC1C)C(=O)N1CCCC(N1)C(=O)OCC(C)(C)C2?
A: IC50 (second compound 0.000949 µM): 4.76 nM; IC50 (second compound 0.003 µM): < 3.16 nM; IC50 (second compound 0.00949 µM): < 3.16 nM; IC50 (second compound 0.03 µM): < 3.16 nM; IC50 (second compound 0.0949 µM): < 3.16 nM; IC50 (second compound 0.3 µM): < 3.16 nM; viability, T/C (second compound 0.000949 µM, first compound 0.00316 µM): 73%; viability, T/C (second compound 0.000949 µM, first compound 0.01 µM): 8.42%; viability, T/C [1]: 6.7%; viability, T/C [2]: 6.74%; viability, T/C [3]: 5.65%; viability, T/C [4]: 6.26%; viability, T/C (second compound 0.003 µM, first compound 0.00316 µM): 48%; viability, T/C (second compound 0.003 µM, first compound 0.01 µM): 6.35%; viability, T/C [7]: 5.14%; viability, T/C [8]: 4.45%; viability, T/C [9]: 4.85%; viability, T/C [10]: 4.99%; viability, T/C (second compound 0.00949 µM, first compound 0.00316 µM): 12.7%; viability, T/C (second compound 0.00949 µM, first compound 0.01 µM): 6.13%; viability, T/C [13]: 4.72%; viability, T/C [14]: 4.79%; viability, T/C [15]: 5.02%; viability, T/C [16]: 4.12%; viability, T/C (second compound 0.03 µM, first compound 0.00316 µM): 7.84%; viability, T/C (second compound 0.03 µM, first compound 0.01 µM): 5.11%; viability, T/C [19]: 4.83%; viability, T/C [20]: 4.21%; viability, T/C [21]: 4.75%; viability, T/C [22]: 3.8%; viability, T/C (second compound 0.0949 µM, first compound 0.00316 µM): 5.28%; viability, T/C (second compound 0.0949 µM, first compound 0.01 µM): 4.76%; viability, T/C [25]: 4.18%; viability, T/C [26]: 3.97%; viability, T/C [27]: 3.99%; viability, T/C [28]: 3.27%; viability, T/C (second compound 0.3 µM, first compound 0.00316 µM): 5.42%; viability, T/C (second compound 0.3 µM, first compound 0.01 µM): 4.54%; viability, T/C [31]: 3.86%; viability, T/C [32]: 3.78%; viability, T/C [33]: 3.81%; viability, T/C [34]: 3.23%
